Assay results taken from BindingDB's records for doi:10.1021/jm200390u (Chosun University, 2011).

Molecular target: T1, 15-hydroxyprostaglandin dehydrogenase [NAD(+)] (Homo sapiens, UniProt P15428)
T1 sequence (P15428 whole entry): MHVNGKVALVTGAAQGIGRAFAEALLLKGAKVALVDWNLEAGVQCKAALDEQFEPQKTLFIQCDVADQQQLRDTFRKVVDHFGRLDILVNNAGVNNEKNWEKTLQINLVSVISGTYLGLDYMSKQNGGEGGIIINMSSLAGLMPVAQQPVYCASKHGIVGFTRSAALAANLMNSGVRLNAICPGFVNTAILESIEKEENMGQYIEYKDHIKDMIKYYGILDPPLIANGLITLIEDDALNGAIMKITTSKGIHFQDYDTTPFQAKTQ
Assay: Inhibition of human 15-PGDH expressed in Escherichia coli using PGE2 as substrate and NAD+ as coenzyme assessed as formation of NADH by spectrophotometric analysis

O=C1N=C(O)SC1=Cc1ccc(OCCC2CCCCC2)cc1
IC50: 51 nM
